pIC50: −log10 of the molar value.
Legend:
KRAS = assay: Inhibition of KRAS activity, assay not specified (at least one assay described herein); conditions: remark in the synthesis example, assay not named
Source text: The invention will be described in greater detail by way of specific examples. The following examples are offered for illustrative purposes, and are not intended to limit the invention in any manner. Those of skill in the art will readily recognize a variety of non-critical parameters which can be changed or modified to yield essentially the same results.

KRAS G12V = KRAS G12V (Homo sapiens, UniProt P01116, G12V); assay: GDP-GTP exchange assay (bodipy-GDP/GppNHp, SOS1), KRAS G12V; assay type: biochemical; conditions: bodipy-loaded KRAS G12V 2.5 nM, 3 hours incubation after adding GppNHp-SOS1; read-out: G12V_exchange IC50
Sequence of KRAS G12V (P01116 1-188 isoform P01116-2 G12V): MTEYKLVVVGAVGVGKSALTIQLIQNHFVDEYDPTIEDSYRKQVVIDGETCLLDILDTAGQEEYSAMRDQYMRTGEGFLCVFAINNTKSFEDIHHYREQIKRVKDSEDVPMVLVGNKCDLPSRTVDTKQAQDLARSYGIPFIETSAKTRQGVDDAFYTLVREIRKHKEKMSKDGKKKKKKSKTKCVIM
Procedure: (§1) The inhibitor potency of the exemplified compounds was determined in a fluorescence based guanine nucleotide exchange assay, which measures the exchange of bodipy-GDP (fluorescently labeled GDP) for GppNHp (Non-hydrolyzable GTP analog) to generate the active state of KRAS in the presence of SOS1 (guanine nucleotide exchange factor). Inhibitors were serially diluted in DMSO and a volume of 0.1 μL was transferred to the wells of a black low volume 384-well plate. 5 μL/well volume of bodipy-loaded KRAS G12D diluted to 2.5 nM in assay buffer (25 mM Hepes pH 7.5, 50 mM NaCl, 10 mM MgCl2 and 0.01% Brij-35) was added to the plate and pre-incubated with inhibitor for 4 hours at ambient temperature. Appropriate controls (enzyme with no inhibitor or with a G12D inhibitor) were included on the plate. The exchange was initiated by the addition of a 5 μL/well volume containing 1 mM GppNHp and 300 nM SOS1 in assay buffer. The 10 μL/well reaction concentration of the bodipy-loaded KRAS G12D, GppNHp, and SOS1 were 2.5 nM, 500 uM, and 150 nM, respectively. The reaction plates were incubated at ambient temperature for 2 hours, a time estimated for complete GDP-GTP exchange in the absence of inhibitor. For the KRAS G12V mutant, similar guanine nucleotide exchange assays were used with 2.5 nM as final concentration for the bodipy loaded KRAS proteins and 3 hours incubation after adding GppNHp-SOS1 mixture. A cyclic peptide described to selectively bind G12D mutant (Sakamoto et al., BBRC 484.3 (2017), 605-611) or internal compounds with confirmed binding were used as positive controls in the assay plates. Fluorescence intensities were measured on a PheraStar plate reader instrument (BMG Labtech) with excitation at 485 nm and emission at 520 nm.
(§2) Either GraphPad prism or Genedata Screener SmartFit was used to analyze the data. The IC50 values were derived by fitting the data to a four parameter logistic equation producing a sigmoidal dose-response curve with a variable Hill coefficient.
(§3) The symbol “†” indicates IC50≤100 nM, “††” indicates IC50>100 nM but ≤1 μM; and “†††” indicates IC50 is >1 μM but ≤5 μM, “††††” indicates IC50 is >5 μM but ≤10 μM. “NA” indicates IC50 not available.

KRAS G12D = KRAS G12D (Homo sapiens, UniProt P01116, G12D); assay: GDP-GTP exchange assay (bodipy-GDP/GppNHp, SOS1), KRAS G12D; assay type: biochemical; conditions: bodipy-loaded KRAS G12D 2.5 nM, 4 hours pre-incubation with inhibitor, 2 hours after GppNHp/SOS1; read-out: G12D_exchange IC50
Sequence of KRAS G12D (P01116 1-188 isoform P01116-2 G12D): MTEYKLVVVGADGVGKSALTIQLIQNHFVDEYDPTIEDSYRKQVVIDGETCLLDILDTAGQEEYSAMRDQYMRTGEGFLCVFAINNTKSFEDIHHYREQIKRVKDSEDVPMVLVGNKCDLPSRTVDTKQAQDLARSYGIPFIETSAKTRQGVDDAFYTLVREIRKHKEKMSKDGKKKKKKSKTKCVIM
Procedure: as §1, §2, §3

| pIC50 (KRAS G12V) | pIC50 (KRAS G12D) | Compound | potency of isolated peak relative to the other diastereomer (KRAS) |
| --- | --- | --- | --- |
| ≥ 7.00 | ≥ 7.00 | CCc1nc2c(-c3cc(C(=O)NC)ccc3F)nc3c(F)c(-c4cc(O)cc5ccccc45)c(CCC#N)cc3c2n1C1C2CNC1C2 (single isomer, unassigned) [Example 17a, 3-(1-((endo)-2-Azabicyclo[2.1.1]hexan-5-yl)-8-(2-cyanoethyl)-2-ethyl-6-fluoro-7-(3-hydroxynaphthalen-1-yl)-1H-imidazo[4,5-c]quinolin-4-yl)-4-fluoro-N-methylbenzamide] | More potent peak |
| ≥ 7.00 | ≥ 7.00 | CC(=O)N1CC[C@H](n2cnc3c(O[C@@H](C)[C@@H]4CCCN4C)nc4c(F)c(-c5cccc6cccc(C#N)c56)c(Cl)cc4c32)C[C@H]1CC#N (single isomer, unassigned) [Example 39b] | potent peak |
| 6.00 to 7.00 | ≥ 7.00 | CN(C)C(=O)CCc1nc2c(N3CC(N(C)C)C3)nc3c(F)c(-c4c(O)ccc(Cl)c4Cl)c(CCC#N)cc3c2n1C1C2CNC1C2 (stereo not shown) [Example 10, 3-(1-(2-azabicyclo[2.1.1]hexan-5-yl)-8-(2-cyanoethyl)-7-(2,3-dichloro-6-hydroxyphenyl)-4-(3-(dimethylamino)azetidin-1-yl)-6-fluoro-1H-imidazo[4,5-c]quinolin-2-yl)-N,N-dimethylpropanamide] |  |
| 5.30 to 6.00 | ≥ 7.00 | CN(C)C(=O)CCc1nc2c(N3CC(N(C)C)C3)nc3c(F)c(-c4cc(O)cc(Cl)c4C4CC4)ccc3c2n1C1C2CNC1C2 (stereo not shown) [Example 11, 3-(1-(2-azabicyclo[2.1.1]hexan-5-yl)-7-(3-chloro-2-cyclopropyl-5-hydroxyphenyl)-4-(3-(dimethylamino)azetidin-1-yl)-6-fluoro-1H-imidazo[4,5-c]quinolin-2-yl)-N,N-dimethylpropanamide] |  |
| 5.00 to 5.30 | 6.00 to 7.00 | CN(C)C(=O)CCc1nc2c(N3CC(N(C)C)C3)nc3c(-c4cnn(-c5ccccn5)c4)c(-c4cc(O)cc5ccccc45)c(CCC#N)cc3c2n1C1C2CNC1C2 (stereo not drawn) [Example 13, 3-(1-((endo)-2-azabicyclo[2.1.1]hexan-5-yl)-8-(2-cyanoethyl)-4-(3-(dimethylamino)azetidin-1-yl)-7-(3-hydroxynaphthalen-1-yl)-6-(1-(pyridin-2-yl)-1H-pyrazol-4-yl)-1H-imidazo[4,5-c]quinolin-2-yl)-N,N-dimethylpropanamide] |  |
| 5.00 to 5.30 | 6.00 to 7.00 | CN(C)C(=O)CCc1nc2c(N3CC(N(C)C)C3)nc3c(F)c(-c4cc(O)cc5ccccc45)cc(CN4CCC(C#N)C4)c3c2n1C1C2CNC1C2 (stereo not drawn) [Example 16, 3-(1-((endo)2-azabicyclo[2.1.1]hexan-5-yl)-9-((3-cyanopyrrolidin-1-yl)methyl)-4-(3-(dimethylamino)azetidin-1-yl)-6-fluoro-7-(3-hydroxynaphthalen-1-yl)-1H-imidazo[4,5-c]quinolin-2-yl)-N,N-dimethylpropanamide] |  |
| 6.00 to 7.00 | ≥ 7.00 | CCc1nc2c(OC[C@@]34CCCN3C[C@H](F)C4)nc3c(F)c(-c4c[nH]c5ccc(C)cc45)c(CCC#N)cc3c2n1C1C2CNC1C2 (stereo partly drawn) [Example 28, 3-(1-(2-azabicyclo[2.1.1]hexan-5-yl)-2-ethyl-6-fluoro-4-(((2R,7aS)-2-fluorotetrahydro-1H-pyrrolizin-7a(5H)-yl)methoxy)-7-(5-methyl-1H-indol-3-yl)-1H-imidazo[4,5-c]quinolin-8-yl)propanenitrile] |  |
| ≥ 7.00 | ≥ 7.00 | C[C@H](Oc1nc2c(F)c(-c3cccc4cccc(C#N)c34)c(Cl)cc2c2c1ncn2[C@H]1CCN(C(=O)CC#N)[C@H](CC#N)C1)[C@@H]1CCCN1C [Example 40, 8-(8-chloro-1-((2S,4S)-1-(2-cyanoacetyl)-2-(cyanomethyl)piperidin-4-yl)-6-fluoro-4-((S)-1-((S)-1-methylpyrrolidin-2-yl)ethoxy)-1H-imidazo[4,5-c]quinolin-7-yl)-1-naphthonitrile] |  |
| ≥ 7.00 | 6.00 to 7.00 | C[C@H](Oc1nc2c(F)c(-c3cccc4cccc(C#N)c34)c(Cl)cc2c2c1ncn2[C@H]1CCN(C(=O)c2nc[nH]n2)[C@H](CC#N)C1)[C@@H]1CCCN1C [Example 41, 8-(8-chloro-1-((2S,4S)-2-(cyanomethyl)-1-(1H-1,2,4-triazole-3-carbonyl)piperidin-4-yl)-6-fluoro-4-((S)-1-((S)-1-methylpyrrolidin-2-yl)ethoxy)-1H-imidazo[4,5-c]quinolin-7-yl)-1-naphthonitrile] |  |
| ≥ 7.00 | ≥ 7.00 | C[C@H](Oc1nc2c(F)c(-c3cccc4cccc(C#N)c34)c(Cl)cc2c2c1ncn2[C@H]1CCN(C(N)=O)[C@H](CC#N)C1)[C@@H]1CCCN1C [Example 42, (2S,4S)-4-(8-chloro-7-(8-cyanonaphthalen-1-yl)-6-fluoro-4-((S)-1-((S)-1-methylpyrrolidin-2-yl)ethoxy)-1H-imidazo[4,5-c]quinolin-1-yl)-2-(cyanomethyl)piperidine-1-carboxamide] |  |
| 6.00 to 7.00 | ≥ 7.00 | C[C@H](Oc1nc2c(F)c(-c3cccc4cccc(C#N)c34)c(Cl)cc2c2c1ncn2[C@H]1CCN(C(=O)C2CC2)[C@H](CC#N)C1)[C@@H]1CCCN1C [Example 43, 8-(8-chloro-1-((2S,4S)-2-(cyanomethyl)-1-(cyclopropanecarbonyl)piperidin-4-yl)-6-fluoro-4-((S)-1-((S)-1-methylpyrrolidin-2-yl)ethoxy)-1H-imidazo[4,5-c]quinolin-7-yl)-1-naphthonitrile] |  |
| ≥ 7.00 | ≥ 7.00 | CC(=O)N1CC[C@H](n2nnc3c(O[C@@H](C)[C@@H]4CCCN4C)nc4c(F)c(-c5cccc6cccc(C#N)c56)c(Cl)cc4c32)C[C@H]1CC#N [Example 44, 8-(1-((2S,4S)-1-acetyl-2-(cyanomethyl)piperidin-4-yl)-8-chloro-6-fluoro-4-((S)-1-((S)-1-methylpyrrolidin-2-yl)ethoxy)-1H-[1,2,3]triazolo[4,5-c]quinolin-7-yl)-1-naphthonitrile] |  |
| ≥ 7.00 | 6.00 to 7.00 | CC(=O)N1CC[C@H](n2c(=O)[nH]c3c(O[C@@H](C)[C@@H]4CCCN4C)nc4c(F)c(-c5cccc6cccc(C#N)c56)c(Cl)cc4c32)C[C@H]1CC#N [Example 45, 8-(1-((2S,4S)-1-acetyl-2-(cyanomethyl)piperidin-4-yl)-8-chloro-6-fluoro-4-((S)-1-((S)-1-methylpyrrolidin-2-yl)ethoxy)-2-oxo-2,3-dihydro-1H-imidazo[4,5-c]quinolin-7-yl)-1-naphthonitrile] |  |

From patent US12600717B2, “Tricyclic compounds as inhibitors of KRAS” (Incyte Corporation, priority 2021, dated 2026)
